Data: ChEMBL document CHEMBL5512645, “A novel antimicrobial peptide with broad-spectrum and exceptional stability derived from the natural peptide Brevicidine” (Eur J Med Chem, 2024)
Values after ≈ are worked out from the molar mass of the structure shown. Active and inactive are the calls of the source. No cut-off for these calls is given here. Bridge positions count the residues as written; N and C are the ends. Square brackets hold non-standard residues; d marks the D form. Peptide text beside a SMILES is read from it. * marks the point of attachment. ξ: configuration not given here. Hexanoyl(4ξ-Me) = CCC(C)CCC(=O)*; dOrn = NCCC[C@@H](N)C(=O)O; Orn = NCCC[C@H](N)C(=O)O

Columns and labels:
Pseudomonas aeruginosa [1] = assay: Antibacterial activity against Pseudomonas aeruginosa ATCC 27853 incubated for 18 to 24 hrs by broth microdilution method; type: functional; settings: time 18-24 hrs
Pseudomonas aeruginosa [2] = assay: Antibacterial activity against Pseudomonas aeruginosa ATCC 27853 pretreated with 2.5% mouse serum followed by compound addition and measured after 6 hrs by broth microdilution method (reference value: 2 microM); type: functional
Klebsiella pneumoniae = assay: Antibacterial activity against Klebsiella pneumoniae ATCC 700603 incubated for 18 to 24 hrs by broth microdilution method; type: functional; settings: time 18-24 hrs
Pseudomonas aeruginosa [3] = assay: Antibacterial activity against Pseudomonas aeruginosa ATCC 27853 pretreated with KCl followed by compound addition and measured after 2 hrs by broth microdilution method (reference value: 2 microM); type: functional
Staphylococcus aureus [4] = assay: Antibacterial activity against Staphylococcus aureus ATCC 25923 incubated for 18 to 24 hrs by broth microdilution method; type: functional; settings: time 18-24 hrs
Pseudomonas aeruginosa [5] = assay: Antibacterial activity against Pseudomonas aeruginosa ATCC 27853 pretreated with 20% mouse serum followed by compound addition and measured after 6 hrs by broth microdilution method (reference value: 2 microM); type: functional
Pseudomonas aeruginosa [6] = assay: Antibacterial activity against Pseudomonas aeruginosa ATCC 27853 pretreated with 5% mouse serum followed by compound addition and measured after 6 hrs by broth microdilution method (reference value: 2 microM); type: functional
Staphylococcus aureus [7] = assay: In vivo antibacterial activity against Staphylococcus aureus ATCC 25923 infected in BALB/c mouse model assessed as amelioration of pathological changes in spleen at 5 to 10 mg/kg, ip measured after 7 hrs by H and E staining based analysis; type: functional, organism-based; settings: dose 5-10 mg/kg
Pseudomonas aeruginosa [8] = assay: Antibacterial activity against Pseudomonas aeruginosa ATCC 27853 pretreated with Na-cl followed by compound addition and measured after 2 hrs by broth microdilution method (reference value: 2 microM); type: functional
Pseudomonas aeruginosa [9] = assay: Antibacterial activity against Pseudomonas aeruginosa ATCC 27853 pretreated with 5% mouse serum followed by compound addition and measured after 1 hr by broth microdilution method (reference value: 2 microM); type: functional
Pseudomonas aeruginosa [10] = assay: Antibacterial activity against Pseudomonas aeruginosa ATCC 27853 assessed as fold increase in MIC pretreated with KCl followed by compound addition and measured after 2 hrs by broth microdilution method; type: functional
Pseudomonas aeruginosa [11] = assay: Antibiofilm activity against Pseudomonas aeruginosa ATCC 27853 at 1/2 to 4 times MIC measured after 24 hrs by crystal violet staining based analysis; type: functional, organism-based
Bacillus subtilis = assay: Antibacterial activity against Bacillus subtilis ATCC 23857 incubated for 18 to 24 hrs by broth microdilution method; type: functional; settings: time 18-24 hrs
Pseudomonas aeruginosa [12] = assay: Antibacterial activity against Pseudomonas aeruginosa ATCC 27853 at sub-MIC measured after 20 days; type: functional, organism-based; settings: time 20.0 day
Staphylococcus aureus [13] = assay: In vivo antibacterial activity against Staphylococcus aureus ATCC 25923 infected in BALB/c mouse model assessed as amelioration of pathological changes in lung at 5 to 10 mg/kg, ip measured after 7 hrs by H and E staining based analysis; type: functional, organism-based; settings: dose 5-10 mg/kg
Staphylococcus aureus [14] = assay: Antibiofilm activity against Staphylococcus aureus ATCC 25923 at 1/2 to 4 times MIC measured after 24 hrs by crystal violet staining based analysis; type: functional, organism-based
Pseudomonas aeruginosa [15] = assay: Antibacterial activity against Pseudomonas aeruginosa ATCC 27853 assessed as fold increase in MIC pretreated with MgCl2 followed by compound addition and measured after 2 hrs by broth microdilution method; type: functional
Pseudomonas aeruginosa [16] = assay: Antibacterial activity against Pseudomonas aeruginosa ATCC 27853 at sub-MIC measured after 20 days in presence of rifampicin; type: functional, organism-based; settings: time 20.0 day
Pseudomonas aeruginosa [17] = assay: Antibacterial activity against Pseudomonas aeruginosa ATCC 27853 pretreated with 2.5% mouse serum followed by compound addition and measured after 1 hr by broth microdilution method (reference value: 2 microM); type: functional
Staphylococcus aureus [18] = assay: In vivo antibacterial activity against Staphylococcus aureus ATCC 25923 infected in BALB/c mouse model assessed as reduction in bacterial count in lung at 10 mg/kg, ip preadministered with compound for 1 hr followed by bacterial infection and measured after 6 hrs […]; type: functional, organism-based; settings: time 7.0 hrs
Pseudomonas aeruginosa [19] = assay: Antibacterial activity against Pseudomonas aeruginosa ATCC 27853 pretreated with 20% mouse serum followed by compound addition and measured after 1 hr by broth microdilution method (reference value: 2 microM); type: functional
Staphylococcus aureus [20] = assay: Antibacterial activity against Staphylococcus aureus ATCC 25923 at sub-MIC measured after 20 days in presence of rifampicin; type: functional, organism-based; settings: time 20.0 day
Enterococcus faecalis = assay: Antibacterial activity against Enterococcus faecalis ATCC 29212 incubated for 18 to 24 hrs by broth microdilution method; type: functional; settings: time 18-24 hrs
[21] = Cytotoxicity against human HK-2 cells measured after 24 hrs MTT assay; type: toxicity, cell-based
Pseudomonas aeruginosa [22] = assay: Antibacterial activity against Pseudomonas aeruginosa ATCC 27853 pretreated with FeCl3 followed by compound addition and measured after 2 hrs by broth microdilution method (reference value: 2 microM); type: functional
Pseudomonas aeruginosa [23] = assay: Antibacterial activity against Pseudomonas aeruginosa ATCC 27853 pretreated with 10% mouse serum followed by compound addition and measured after 6 hrs by broth microdilution method (reference value: 2 microM); type: functional
Escherichia coli = assay: Antibacterial activity against Escherichia coli ATCC 25922 incubated for 18 to 24 hrs by broth microdilution method; type: functional; settings: time 18-24 hrs
Pseudomonas aeruginosa [24] = assay: Antibacterial activity against Pseudomonas aeruginosa ATCC 27853 pretreated with Mgcl2 followed by compound addition and measured after 2 hrs by broth microdilution method (reference value: 2 microM); type: functional
Pseudomonas aeruginosa [25] = assay: Antibacterial activity against Pseudomonas aeruginosa ATCC 27853 pretreated with 10% mouse serum followed by compound addition and measured after 1 hr by broth microdilution method (reference value: 2 microM); type: functional
Staphylococcus aureus [26] = assay: Antibacterial activity against Staphylococcus aureus ATCC 25923 at sub-MIC measured after 20 days in presence of gentamicin; type: functional, organism-based; settings: time 20.0 day
Pseudomonas aeruginosa [27] = assay: Antibacterial activity against Pseudomonas aeruginosa ATCC 27853 pretreated with Zncl2 followed by compound addition and measured after 2 hrs by broth microdilution method (reference value: 2 microM); type: functional
[28] = tested on: Staphylococcus epidermidis; assay: Antibacterial activity against Staphylococcus epidermidis ATCC 12228 incubated for 18 to 24 hrs by broth microdilution method; type: functional; settings: time 18-24 hrs
Pseudomonas aeruginosa [29] = assay: Antimicrobial activity against Pseudomonas aeruginosa ATCC 27853 assessed as reduction in microbial growth at 2 times MIC measured for 18 hrs in presence of 256 microg/ml LPS; type: functional, organism-based
Pseudomonas aeruginosa [30] = assay: Antibacterial activity against Pseudomonas aeruginosa ATCC 27853 assessed as fold increase in MIC pretreated with NaCl followed by compound addition and measured after 2 hrs by broth microdilution method; type: functional
Acinetobacter baumannii = assay: Antibacterial activity against Acinetobacter baumannii ATCC 19606 incubated for 18 to 24 hrs by broth microdilution method; type: functional; settings: time 18-24 hrs
Pseudomonas aeruginosa [31] = assay: Antibacterial activity against Pseudomonas aeruginosa ATCC 27853 at sub-MIC measured after 20 days in presence of gentamicin; type: functional, organism-based; settings: time 20.0 day
Pseudomonas aeruginosa [32] = assay: Induction of morphological changes in Pseudomonas aeruginosa ATCC 27853 assessed as leakage of cellular content at 2 times MIC measured after 0.5 hrs by SEM based analysis; type: functional, organism-based
Pseudomonas aeruginosa [33] = assay: Induction of morphological changes in Pseudomonas aeruginosa ATCC 27853 assessed as pore formation on bacterial surface at 2 times MIC measured after 0.5 hrs by SEM based analysis; type: functional, organism-based
Pseudomonas aeruginosa [34] = assay: Induction of morphological changes in Pseudomonas aeruginosa ATCC 27853 assessed as membrane rupture at 2 times MIC measured after 2 hrs by SEM based analysis; type: functional, organism-based

Molecule	MIC (Pseudomonas aeruginosa [1]) [µM]	MIC (Pseudomonas aeruginosa [2]) [µM]	MIC (Klebsiella pneumoniae) [µM]	MIC (Pseudomonas aeruginosa [3]) [µM]	MIC (Staphylococcus aureus [4]) [µM]	MIC (Pseudomonas aeruginosa [5]) [µM]	MIC (Pseudomonas aeruginosa [6]) [µM]	MIC (Pseudomonas aeruginosa [8]) [µM]	MIC (Pseudomonas aeruginosa [9]) [µM]	Activity (Pseudomonas aeruginosa [11])	MIC (Bacillus subtilis) [µM]	Activity (Staphylococcus aureus [14])	Activity (Pseudomonas aeruginosa [16])	MIC (Pseudomonas aeruginosa [17]) [µM]	MIC (Pseudomonas aeruginosa [19]) [µM]	Activity (Staphylococcus aureus [20])	MIC (Enterococcus faecalis) [µM]	MIC (Pseudomonas aeruginosa [22]) [µM]	MIC (Pseudomonas aeruginosa [23]) [µM]	MIC (Escherichia coli) [µM]	also measured
CCCCCCCCCC(=O)N[C@H](CCCN)C(=O)N[C@H](Cc1ccc(O)cc1)C(=O)N[C@H](Cc1c[nH]c2ccccc12)C(=O)N[C@H](CCCN)C(=O)N[C@@H](CCCN)C(=O)NCC(=O)N[C@H](CCCN)C(=O)N[C@@H](Cc1c[nH]c2ccccc12)C(=O)N[C@H](C(=O)N[C@H](C(=O)NCC(=O)N[C@@H](CO)C(=O)O)[C@@H](C)CC)[C@@H](C)O	2 (≈ 3.16 µg/mL)	2 (≈ 3.16 µg/mL)	4 (≈ 6.32 µg/mL)	2 (≈ 3.16 µg/mL)	8 (≈ 12.6 µg/mL)	8 (≈ 12.6 µg/mL)	2 (≈ 3.16 µg/mL)	2 (≈ 3.16 µg/mL)	2 (≈ 3.16 µg/mL)	Active	2 (≈ 3.16 µg/mL)	Active	Active	2 (≈ 3.16 µg/mL)	4 (≈ 6.32 µg/mL)	Active	16 (≈ 25.3 µg/mL)	< 1	4 (≈ 6.32 µg/mL)	4 (≈ 6.32 µg/mL)	Activity (Staphylococcus aureus [7]): Active; fold change (FC) (Pseudomonas aeruginosa [10]): 8; Activity (Pseudomonas aeruginosa [12]): Active; Activity (Staphylococcus aureus [13]): Active; fold change (FC) (Pseudomonas aeruginosa [15]): 8; Activity (Staphylococcus aureus [18]): Active; IC50 at 24 h [21]: 21.1 µM; MIC (Pseudomonas aeruginosa [24]): 2 µM (≈ 3.16 µg/mL); MIC (Pseudomonas aeruginosa [25]): 2 µM (≈ 3.16 µg/mL); Activity (Staphylococcus aureus [26]): Active; MIC (Pseudomonas aeruginosa [27]): 2 µM (≈ 3.16 µg/mL); MIC [28]: 4 µM (≈ 6.32 µg/mL); Activity (Pseudomonas aeruginosa [29]): inactive; fold change (FC) (Pseudomonas aeruginosa [30]): 8; MIC (Acinetobacter baumannii): 4 µM (≈ 6.32 µg/mL); Activity (Pseudomonas aeruginosa [31]): Active
CCC(C)CCC(=O)N[C@H](CC(N)=O)C(=O)N[C@H](Cc1ccc(O)cc1)C(=O)N[C@H](Cc1c[nH]c2ccccc12)C(=O)N[C@H](CCCN)C(=O)N[C@@H](CCCN)C(=O)NCC(=O)N[C@H](CCCN)C(=O)N[C@@H](Cc1c[nH]c2ccccc12)C(=O)N[C@@H]1C(=O)N[C@@H]([C@@H](C)CC)C(=O)NCC(=O)N[C@@H](CO)C(=O)O[C@@H]1C (stereo not given in full) ({Hexanoyl(4ξ-Me)}-[dN][dY][dW][dOrn][Orn]G[dOrn]WTIGS; ester 9-C)	2 (≈ 3.04 µg/mL)	8 (≈ 12.2 µg/mL)	2 (≈ 3.04 µg/mL)	8 (≈ 12.2 µg/mL)	64 (≈ 97.3 µg/mL)	16 (≈ 24.3 µg/mL)	8 (≈ 12.2 µg/mL)	4 (≈ 6.08 µg/mL)	2 (≈ 3.04 µg/mL)	Active	8 (≈ 12.2 µg/mL)	Active	Active	2 (≈ 3.04 µg/mL)	4 (≈ 6.08 µg/mL)	Active	64 (≈ 97.3 µg/mL)	4 (≈ 6.08 µg/mL)	8 (≈ 12.2 µg/mL)	2 (≈ 3.04 µg/mL)	fold change (FC) (Pseudomonas aeruginosa [10]): 4; Activity (Pseudomonas aeruginosa [12]): Active; fold change (FC) (Pseudomonas aeruginosa [15]): 4; Activity (Pseudomonas aeruginosa [32]): Active; IC50 at 24 h [21]: 36.5 µM; MIC (Pseudomonas aeruginosa [24]): 8 µM (≈ 12.2 µg/mL); MIC (Pseudomonas aeruginosa [25]): 4 µM (≈ 6.08 µg/mL); Activity (Staphylococcus aureus [26]): Active; MIC (Pseudomonas aeruginosa [27]): 4 µM (≈ 6.08 µg/mL); MIC [28]: 32 µM (≈ 48.6 µg/mL); Activity (Pseudomonas aeruginosa [33]): Active; Activity (Pseudomonas aeruginosa [34]): Active; fold change (FC) (Pseudomonas aeruginosa [30]): 2; MIC (Acinetobacter baumannii): 8 µM (≈ 12.2 µg/mL); Activity (Pseudomonas aeruginosa [31]): Active
POLYMYXIN B	2	2	4	< 1	16	4	2	< 1	2	Active	8	Active	Active	2	2	Active	128	< 1	4	2	Activity (Staphylococcus aureus [7]): Active; Activity (Staphylococcus aureus [13]): Active; Activity (Pseudomonas aeruginosa [32]): Active; Activity (Staphylococcus aureus [18]): Active; MIC (Pseudomonas aeruginosa [24]): 2 µM; MIC (Pseudomonas aeruginosa [25]): 2 µM; Activity (Staphylococcus aureus [26]): Active; MIC (Pseudomonas aeruginosa [27]): < 1 µM; MIC [28]: 32 µM; Activity (Pseudomonas aeruginosa [33]): Active; Activity (Pseudomonas aeruginosa [29]): inactive; Activity (Pseudomonas aeruginosa [34]): Active; MIC (Acinetobacter baumannii): 1 µM; Activity (Pseudomonas aeruginosa [31]): Active
